Assay results: PMC13408504, “Design, structure-based optimization and antiviral evaluation of potent inhibitors for the macrodomain Mac1 of SARS-CoV-2” (Nature Communications, 2026)
“And” between values parts separate entries of the source, which are not always exact repeats. Equal values may be shown once.

Key:
[1] = test system: cellular NAD+ levels in CaLu-3 cells; assay: Quantification of cellular NAD+ (enzymatic cycling kit, normalised to protein); type: cell-based
wildtype Mac1 [2] = target: T1, wildtype Mac1 (Severe acute respiratory syndrome coronavirus 2, UniProt P0DTD1); type: biochemical, SARS-CoV-2
[3] = target: NADase from Neurospora crassa (Neurospora crassa, UniProt Q7S936); type: biochemical
Sequence of NADase from Neurospora crassa (Q7S936 20-243 limits assumed): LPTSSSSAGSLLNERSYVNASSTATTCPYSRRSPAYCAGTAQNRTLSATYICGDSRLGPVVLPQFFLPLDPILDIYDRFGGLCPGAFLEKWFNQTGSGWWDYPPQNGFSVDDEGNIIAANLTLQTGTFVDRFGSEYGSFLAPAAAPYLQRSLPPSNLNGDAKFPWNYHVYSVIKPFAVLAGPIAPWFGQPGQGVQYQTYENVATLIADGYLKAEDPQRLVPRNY

Mac1 [4] = conditions: cited from earlier work
[5] = pH 7.3
pig liver esterase (PLE) = conditions: pH 7.3
in vitro = conditions: human, pH 7.4
physchem = conditions: pH 7.3
Mac1 of SARS-CoV-2 [6] = target: T2, Mac1 of SARS-CoV-2 (Severe acute respiratory syndrome coronavirus 2, UniProt P0DTD1); assay: Fluorimetric microplate assay for Mac1 activity (α-NAD+ hydrolysis, post-reaction derivatisation); type: biochemical
Mac1 of SARS-CoV-2 [7] = target: T2, Mac1 of SARS-CoV-2; assay: biochemical; conditions: pIC50 (±SD) for Mac1 inhibition
human MacroD1 = human MacroD1 (Homo sapiens, UniProt Q9BQ69); type: biochemical
Sequence of human MacroD1 (Q9BQ69 whole entry): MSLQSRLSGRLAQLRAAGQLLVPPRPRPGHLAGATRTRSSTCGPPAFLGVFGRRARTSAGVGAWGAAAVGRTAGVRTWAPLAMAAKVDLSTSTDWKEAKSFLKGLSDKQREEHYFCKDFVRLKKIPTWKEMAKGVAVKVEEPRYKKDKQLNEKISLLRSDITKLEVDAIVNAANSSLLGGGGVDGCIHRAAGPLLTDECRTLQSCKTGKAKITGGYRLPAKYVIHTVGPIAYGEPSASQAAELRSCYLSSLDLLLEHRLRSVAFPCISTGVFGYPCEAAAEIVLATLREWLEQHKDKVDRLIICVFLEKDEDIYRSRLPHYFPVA

human MacroD2 = human MacroD2 (Homo sapiens, UniProt A1Z1Q3); type: biochemical
Sequence of human MacroD2 (A1Z1Q3 whole entry): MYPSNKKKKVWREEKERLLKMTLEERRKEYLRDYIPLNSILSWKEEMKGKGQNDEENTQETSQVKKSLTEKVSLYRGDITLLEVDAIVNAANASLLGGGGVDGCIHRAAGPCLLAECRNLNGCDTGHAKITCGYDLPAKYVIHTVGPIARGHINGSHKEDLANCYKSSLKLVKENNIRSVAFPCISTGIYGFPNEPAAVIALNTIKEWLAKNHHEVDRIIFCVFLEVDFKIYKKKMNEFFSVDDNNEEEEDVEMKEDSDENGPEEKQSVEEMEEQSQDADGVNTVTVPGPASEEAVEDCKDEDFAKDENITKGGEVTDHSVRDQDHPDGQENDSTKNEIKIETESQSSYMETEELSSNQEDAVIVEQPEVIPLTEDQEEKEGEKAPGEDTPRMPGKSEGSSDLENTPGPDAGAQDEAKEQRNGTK

wildtype Mac1 [8] = target: T1, wildtype Mac1; type: binding
Mac1 [9] = conditions: cited from earlier work; remark: listed apart in the source

## O=C(/C=C/c1cccnc1)NCCCCC1CCN(C(=O)c2ccccc2)CC1 [FK866]
[1]
  reduction of cellular NAD levels: ~ 90%

## NC(=O)c1ccc[n+]([C@@H]2O[C@H](COP(=O)([O-])OP(=O)(O)OC[C@H]3O[C@@H](n4cnc5c(N)ncnc54)[C@H](O)[C@@H]3O)[C@@H](O)[C@H]2O)c1 [compound 2, β-NAD^+]
Wildtype Mac1 [2]
  hydrolysis by Mac1 (in words): intact
[3]
  hydrolysis by NADase (in words): hydrolyzed

## N#C[C@@]1(c2ccc3c(N)ncnn23)O[C@H](CO)[C@@H](O)[C@H]1O [compound 3, GS-441524]
Mac1 [4]
  affinity for Mac1 compared with ADPR 1 (in words): affinity similar to ADPR 1

## COP(=O)(O)OP(=O)(O)OC[C@H]1O[C@@](C#N)(c2ccc3c(N)ncnn23)[C@H](O)[C@@H]1O [compound 4, β-methyl-GS-441524-DP]
CaLu-3 cells; human, pH 7.4
  time at which cellular uptake reached an equilibrium: 15 min

## CCCCCCCCCCCC(=O)Oc1ccc(COP(=O)(OC)OP(=O)(O)OC[C@H]2O[C@@](C#N)(c3ccc4c(N)ncnn34)[C@H](O)[C@@H]2O)cc1 (stereo partly drawn) [compound 5, C11-AB-β-methyl-GS-441524-DP]
CaLu-3 cells
  decrease of β-NAD+ 2 levels: 62%
CaLu-3 cells; human, pH 7.4
  GS-441524-MP 40 formed, share of the total of detectable 40 and deprotected compound: 24%
  intracellular concentration: 0.3 to 0.4 µM
[5]
  time at which incipient decomposition to GS-441524-MP 40 was discovered: 30 s
Pig liver esterase (PLE)
  hydrolysis with pig liver esterase (in words): successful
In vitro
  CC50: > 50 µM
physchem
  half-life: 61 h

## O=c1[nH]cnc2c1ncn2C1OC(COP(=O)(O)OP(=O)(O)OCC2OC(O)C(O)C2O)C(O)C1O (stereo not drawn) [compound 10, inosine-5′-O-diphosphoribose]
Mac1 of SARS-CoV-2 [6]
  Inhibition of Mac1 (in words): did not inhibit Mac1

## Nc1nc(F)nc2c1ncn2C1OC(COP(=O)(O)OP(=O)(O)OCC2OC(O)C(O)C2O)C(O)C1O (stereo not drawn) [compound 11, 2-F-ADPR]
Mac1 of SARS-CoV-2 [6]
  IC50: 191 µM

## Nc1ncnc2c1nc(-c1ccsc1)n2C1OC(COP(=O)(O)OP(=O)(O)OCC2OC(O)C(O)C2O)C(O)C1O (stereo not drawn) [compound 12, 8-thiophen-3-yl-ADPR]
Mac1 of SARS-CoV-2 [7]
  IC50: 251 µM

## Nc1ncnc2c1nc(Br)n2C1OC(COP(=O)(O)OP(=O)(O)OCC2OC(O)C(O)C2O)C(O)C1O (stereo not drawn) [compound 13, 8-Br-ADPR]
Human MacroD1
  Inhibition of human MacroD1 (in words): low micromolar range
Human MacroD2
  Inhibition of human MacroD2 (in words): low micromolar range

## Nc1ncnc2c1cc(Br)n2C1OC(COP(=O)(O)OP(=O)(O)OCC2OC(O)C(O)C2O)C(O)C1O (stereo not drawn) [compound 14, 8-Br-7-deaza-ADPR]
Mac1 of SARS-CoV-2 [6]
  IC50: 38 µM

## Nc1ncnc2c1ncn2[C@@H]1O[C@H](COP(=O)(O)OP(=O)(O)OC[C@H]2O[C@@H](O)C(O)[C@H]2O)C(O)[C@@H]1OP(=O)(O)O (stereo partly drawn) [compound 15, ADPR-2′-phosphate]
Wildtype Mac1 [8]
  TΔS: -5.4 ± 1.2 kcal/mol
  ΔH: -11.5 ± 0.2 kcal/mol
Mac1 [4]
  affinity for Mac1 compared with ADPR 1 (in words): slightly higher affinity than ADPR 1

## Nc1ncnc2c1ncn2[C@H]1C[C@H](O)[C@@H](COP(=O)(O)OP(=O)(O)OC[C@H]2OC(O)[C@H](O)[C@@H]2O)O1 (stereo partly drawn) [compound 16, 2′-deoxy-ADPR]
Wildtype Mac1 [8]
  TΔS: -5.9 ± 0.2 kcal/mol
  ΔH: -12.5 ± 0.2 kcal/mol

## Nc1ncnc2c1ncn2[C@@H]1O[C@H](COP(=O)(O)OP(=O)(O)O)[C@@H](O)[C@H]1O [compound 18, ADP]
Mac1 of SARS-CoV-2 [6]
  pIC50 (±SD) for Mac1 inhibition: 2.44 and 2.3 ± 0.1
Mac1 [9]
  thermal stabilisation of Mac1 (in words): not thermally stabilised

## Nc1ncnc2c1ccn2C1OC(COP(=O)(O)OP(=O)(O)OCC2OC(O)C(O)C2O)C(O)C1O (stereo not drawn) [compound 22, 7-Deazaadenosine DP ribose]
Mac1 of SARS-CoV-2 [6]
  IC50: 14.5 µM

## Nc1ncnc2c1ncn2[C@@H]1O[C@H](COP(=O)(O)OP(=O)(O)O[C@H]2O[C@H](CO)[C@@H](O)[C@H](O)[C@H]2O)[C@@H](O)[C@H]1O [compound 23, ADP-glucose]
Mac1 of SARS-CoV-2 [6]
  Inhibition of Mac1 (in words): no detectable inhibition

## Nc1ncnc2c1ncn2[C@@H]1O[C@H](COP(=O)(O)OP(=O)(O)OC2CCCC2)[C@@H](O)[C@H]1O [compound 27, β-cyclopentyl-ADP]
Mac1 of SARS-CoV-2 [6]
  pIC50 (±SD) for Mac1 inhibition: 2.79

## Nc1ncnc2c1ncn2[C@@H]1O[C@H](COP(=O)(O)CP(=O)(O)O)[C@@H](O)[C@H]1O [compound 34, α-β methylene-ADP]
Mac1 of SARS-CoV-2 [6]
  Inhibition of Mac1 (in words): none of these compounds inhibited Mac1

## Nc1ncnc2c1ncn2[C@@H]1O[C@H](COP(=O)(O)OP(=O)(O)S)[C@@H](O)[C@H]1O (stereo partly drawn) [compound 35, adenosine-5′-O-(2-thiodiphosphate)]
Mac1 of SARS-CoV-2 [6]
  IC50: 3890 µM

## Nc1ncnc2c1ncn2[C@@H]1O[C@H](CO)[C@@H](O)[C@H]1O [compound 38, adenosine]
Mac1 of SARS-CoV-2 [6]
  Inhibition of Mac1 (in words): showed no inhibition

## Nc1ncnc2c1ncn2[C@@H]1O[C@H](COP(=O)(O)O)[C@@H](O)[C@H]1O [compound 39, AMP]
Mac1 of SARS-CoV-2 [6]
  Inhibition of Mac1 (in words): showed no inhibition

## N#C[C@@]1(c2ccc3c(N)ncnn23)O[C@H](COP(=O)(O)O)[C@@H](O)[C@H]1O [compound 40, GS-441524-monophosphate]
Mac1 of SARS-CoV-2 [6]
  IC50: 43.7 µM
